Source: PubChem BioAssay (NCI)
Values joined by “and” are separate entries in the source; they are usually repeats but may differ in a detail not shown here. Equal entries are not always repeated.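 Compound exposure: 48 hours, 5 concentrations, 96-well plates. Abbreviation: GI50, concentration required for 50% inhibition of growth. The concentration for full growth arrest is given as TGI.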

Columns and labels:
Experiment in all cases: DTP human tumour cell line panel, 48 h
MOLT-4 leukemia = system: MOLT-4 leukemia
NCI-H226 lung = system: NCI-H226 lung
NCI-H23 lung = system: NCI-H23 lung
NCI-H460 lung = system: NCI-H460 lung
OVCAR-3 ovarian = system: OVCAR-3 ovarian
SK-OV-3 ovarian = system: SK-OV-3 ovarian
SNB-19 CNS = system: SNB-19 CNS
SR leukemia = system: SR leukemia
TK-10 renal = system: TK-10 renal
UACC-62 melanoma = system: UACC-62 melanoma

Compound | GI50 (MOLT-4 leukemia) [µM] | TGI (MOLT-4 leukemia) [µM] | GI50 (NCI-H226 lung) [µM] | TGI (NCI-H226 lung) [µM] | GI50 (NCI-H23 lung) [µM] | TGI (NCI-H23 lung) [µM] | GI50 (NCI-H460 lung) | TGI (NCI-H460 lung) [µM] | GI50 (OVCAR-3 ovarian) | TGI (OVCAR-3 ovarian) | GI50 (SK-OV-3 ovarian) | TGI (SK-OV-3 ovarian) | GI50 (SNB-19 CNS) | TGI (SNB-19 CNS) | GI50 (SR leukemia) [µM] | TGI (SR leukemia) [µM] | GI50 (TK-10 renal) [µM] | TGI (TK-10 renal) [µM] | GI50 (UACC-62 melanoma) | TGI (UACC-62 melanoma)
O=CC(OC(=O)c1ccccc1)C(OC(=O)c1ccccc1)C(COC(c1ccccc1)(c1ccccc1)c1ccccc1)OC(=O)c1ccccc1 (stereo not given) | 2.64 | 11.7 | 18.9 | 64.4 | 15.4 | 34.6 | 17.1 µM | 37.8 | 11 µM | 24.1 µM | 21.3 µM | 48.2 µM | 15.3 µM | 28.6 µM | 1.3 | 4.03 | 20.4 | 50.3 | 14.5 µM | 44.1 µM
Oc1ccc(NC(=S)Nc2ccccc2)cc1 | > 100 | > 100 | > 100 | > 100 | > 100 | > 100 | > 100 µM | > 100 | > 100 µM | > 100 µM | > 100 µM | > 100 µM | > 100 µM | > 100 µM | > 100 | > 100 | > 100 | > 100 | > 100 µM | > 100 µM
CCN(CC)CCNc1c2ccccc2nc2cccc([N+](=O)[O-])c12 | – | 0.124 | – | 0.0553 | – | 0.0188 | – | 0.0186 | 0.0244 µM | 0.0241 µM and 0.0621 µM | – | 0.0637 µM | 0.0166 µM | – | – | 0.0888 | – | 0.0813 | – | 0.0208 µM
C=CC(=O)N[C@@H]1CN(c2nc(Nc3cn(C)nc3OC)c3ncn(C)c3n2)C[C@H]1F | 39 | > 100 | > 83 | > 100 | 27.5 | > 100 | 34.5 µM | > 100 | 19 µM | > 88 µM | 0.0881 µM | > 47.2 µM | 27.1 µM | > 100 µM | 7.57 | > 91.3 | 0.0664 | 23.9 | 23.1 µM | > 90.6 µM
CC(=O)NNc1nc(C)c(C(=O)NNC(=O)C(=O)Nc2ccc(Cl)c([N+](=O)[O-])c2)s1 | – | 54.6 | – | > 100 | – | > 100 | – | > 100 | – | 80.8 µM | – | > 100 µM | – | > 100 µM | – | > 100 | – | > 100 | – | > 100 µM
COc1cc(/C=C/C(=O)c2cccc3ccccc23)cc(OC)c1OC | – | 34.4 | – | 30.3 | – | 18.4 | – | 14.2 | – | 25.7 µM | – | 28.5 µM | – | 27.8 µM | – | 73.2 | – | 27.3 | – | 21.3 µM
COC(=O)C(=O)C(CC(=O)Nc1cc(Cl)ccc1Cl)C(=O)OC (stereo not given) | – | > 100 | – | > 100 | – | > 100 | – | > 100 | – | > 100 µM | – | > 100 µM | – | > 100 µM | – | > 100 | – | > 100 | – | > 100 µM
Cc1cc(F)c(C(=O)Nc2cccc(-c3nncn3C(C)C)n2)cc1-n1cnc(C2CC2)c1 | 10.1 | 54.2 | 19.5 | 80.7 | 12 | 46.6 | 14.5 µM | 96.4 | 12.5 µM | > 100 µM | 24.5 µM | > 100 µM | 25.5 µM | > 100 µM | 4.42 | > 100 | 8.12 | 92.5 | 14.1 µM | 48 µM
O/N=C1/CCC/C1=C\c1ccccc1 | – | > 100 | – | > 100 | – | > 100 | – | > 100 | – | > 100 µM | – | > 100 µM | – | > 100 µM | – | > 100 | – | > 100 | – | > 100 µM
Cc1cccc(C(C)(C)C)c1NC(=O)C(C#N)C1=C(Cl)C(=O)c2ccccc2C1=O (stereo not given) | – | 22.6 | – | 21.2 | – | 30.2 | – | 38.5 | – | 31.4 µM | – | 40.2 µM | – | 39.1 µM | – | > 100 | – | 33.3 | – | 32.5 µM
CC(Oc1cc2oc(=O)cc(-c3ccccc3)c2cc1Cl)C(=O)O (stereo not given) | – | > 100 | – | > 100 | – | > 100 | – | > 100 | – | > 100 µM | – | > 100 µM | – | > 100 µM | – | > 100 | – | > 100 | – | > 100 µM
NCCOc1ccc(/C(=C(/Cl)c2ccccc2)c2ccccc2)cc1 | – | 14.7 | – | 36.7 | – | 30.7 | – | 21.6 | – | 26.2 µM | – | 31.7 µM | – | 28.9 µM | – | 12.1 | – | 26.2 | – | 25.3 µM
O=C(CCc1nc(=S)[nH][nH]1)Nc1cc(Cl)ccc1Cl | – | > 100 | – | > 100 | – | > 100 | – | > 100 | – | > 100 µM | – | > 100 µM | – | > 100 µM | – | > 100 | – | > 100 | – | > 100 µM
Cc1ccc2c(c1)[n+](=O)c(C(=O)c1cccs1)c(C(F)(F)F)n2[O-] | 4.12 | 50 | 2.21 | 13.2 | 0.854 | 2.59 | 0.616 µM and 0.359 µM | – | 0.923 µM and 0.163 µM | 2.6 µM and 0.979 µM | 1.56 µM and 2.34 µM | 11.2 µM and 19.4 µM | 2.24 µM and 3.91 µM | 11.2 µM and 17.8 µM | 0.152 | 50 | 0.718 | 3.22 | 0.951 µM and 1.91 µM | 2.73 µM and 13.9 µM
COc1cccc(/C=N/[N-]C(=O)c2ccncc2)c1[O-].[Mn+2].[OH3+] | 3.24 | > 100 | 12.4 | 86.5 | 8.12 | 41.1 | 4.34 µM | > 100 | 3.51 µM | > 100 µM | 5.94 µM | 50.2 µM | 42 µM | > 100 µM | 3.63 | > 100 | 18.3 | > 100 | 3.9 µM | 23.2 µM
